In the supplement of paper PMC7840683:
Where a name gives a salt, the structure may show the parent alone. ± gives the standard deviation of the averaged measurements.

Test system: HepaRG
Assay: LDH release cytotoxicity, % of total lysis control; higher = more cytotoxic
Settings: 48 h
Summary of the method: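 The CytoTox-ONE kit was used to read LDH in 50 µL spent medium as resorufin fluorescence on a Tecan Safire, with 0.1% Triton X added to total lysis wells. Beforehand, single-lot HepaRG cells on collagen I-coated 96-well plates had been exposed in duplicate for 48 h to eight-point half-log series (top 100 µM) in serum-free induction medium containing 0.5% DMSO. Percent cytotoxicity was normalized against on-plate vehicle and total lysis controls and averaged over duplicates.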

Compound | LDH release cytotoxicity (0.03162 µM) [%] | LDH release cytotoxicity (0.1 µM) [%] | LDH release cytotoxicity (0.3162278 µM) [%] | LDH release cytotoxicity (1 µM) [%] | LDH release cytotoxicity (3.16228 µM) [%] | LDH release cytotoxicity (10 µM) [%] | LDH release cytotoxicity (31.6228 µM) [%] | LDH release cytotoxicity (100 µM) [%] | also measured
COC(=O)N(OC)c1ccccc1COc1ccn(-c2ccc(Cl)cc2)n1 [Pyraclostrobin] | -1.44 ± 1.1 | -1.43 ± 0.92 | -1.17 ± 0.68 | -2.24 ± 0.11 | -1.81 ± 0.71 | -0.283 ± 0.49 | 6.12 ± 1.7 | 56.9 ± 7.3 | 
COC(=O)CCCCC(=O)OC [Dimethyl adipate] | 0.892 ± 0.4 | -1.11 ± 0.066 | -1.36 ± 0.49 | -1.52 ± 0.75 | -1.398 ± 0.013 | -1.08 ± 0.68 | -0.702 ± 0.6 | 0.485 ± 0.56 | 
CCCCCCCCCCCCO [1-Dodecanol] |  | -0.16 ± 8 |  | -2.62 ± 3.8 | -2.27 ± 3.2 | -0.892 ± 4.2 | -1.67 ± 1 | -0.399 ± 1.2 | LDH release cytotoxicity (0.031623 µM): -3.98 ± 0.71%; LDH release cytotoxicity (0.316228 µM): -2.69 ± 2.2%
CS(=O)(=O)c1ccc(C(=O)C2C(=O)CCCC2=O)c([N+](=O)[O-])c1 [Mesotrione] |  |  |  |  |  |  |  |  | LDH release cytotoxicity (0.0320971 µM): 0.286 ± 0.54%; LDH release cytotoxicity (0.1015 µM): -0.676 ± 1.3%; LDH release cytotoxicity (0.320971 µM): -1.35 ± 0.82%; LDH release cytotoxicity (1.015 µM): -0.8 ± 0.14%; LDH release cytotoxicity (3.2097118 µM): -0.694 ± 0.22%; LDH release cytotoxicity (10.15 µM): -1.17 ± 0.99%; LDH release cytotoxicity (32.0971 µM): -1.09 ± 0.39%; LDH release cytotoxicity (101.5 µM): -1.76 ± 0.31%
N#Cc1c[nH]cc1-c1cccc2c1OC(F)(F)O2 [Fludioxonil] | -1.45 ± 1 | -1.69 ± 0.5 | -1.72 ± 0.45 | -1.04 ± 0.23 | 0.437 ± 0.076 | 0.919 ± 0.9 | 3.74 ± 0.92 | 9.41 ± 1.2 | 
CCCCCCCC=O [Octanal] | -2.27 ± 0.13 | -2.49 ± 0.035 | -2.18 ± 1.1 | -1.59 ± 0.17 | -1.99 ± 0.053 | -1.65 ± 0.19 | -0.367 ± 0.076 | -0.293 ± 0.53 | 
CCC(NC(=O)c1cc(F)ccc1NS(=O)(=O)c1cccc2cccnc12)c1ccccc1 (configuration not stated) [AVE3295] |  |  |  |  |  |  |  |  | LDH release cytotoxicity (0.0301998 µM): -1.81 ± 0.3%; LDH release cytotoxicity (0.0955 µM): -1.66 ± 1.1%; LDH release cytotoxicity (0.301997 µM): -1.7 ± 0.59%; LDH release cytotoxicity (0.955 µM): -1.55 ± 0.55%; LDH release cytotoxicity (3.01998 µM): -1.75 ± 0.27%; LDH release cytotoxicity (9.55 µM): -2.12 ± 0.47%; LDH release cytotoxicity (30.199752 µM): -1.2 ± 0.89%; LDH release cytotoxicity (95.5 µM): 4.69 ± 0.74%
O=C(c1ccc(O)cc1O)c1ccc(O)cc1O [2,2',4,4'-Tetrahydroxybenzophenone] |  | -1.13 ± 1.1 |  | -1.52 ± 0.89 | -2.25 ± 0.71 | -1.76 ± 0.33 | 1.26 ± 0.54 | 35.3 ± 1.2 | LDH release cytotoxicity (0.031623 µM): -0.783 ± 0.28%; LDH release cytotoxicity (0.316228 µM): -1.37 ± 0.79%
CNC(=O)Oc1cccc2ccccc12 [Carbaryl] | -0.447 ± 0.24 | -1.82 ± 1.5 | -1.28 ± 0.7 | -0.688 ± 1.2 | -0.561 ± 0.076 | 0.0525 ± 0.91 | 0.246 ± 1.1 | 0.543 ± 0.82 | 
CN(C)c1ccccc1 [N,N-Dimethylaniline] |  |  |  |  |  |  |  |  | LDH release cytotoxicity (0.030516 µM): -0.91 ± 0.26%; LDH release cytotoxicity (0.0965 µM): -1.79 ± 0.17%; LDH release cytotoxicity (0.30516 µM): -1.99 ± 0.44%; LDH release cytotoxicity (0.965 µM): -2.41 ± 0.19%; LDH release cytotoxicity (3.0515979 µM): -1.849 ± 0.013%; LDH release cytotoxicity (9.65 µM): -1.69 ± 0.57%; LDH release cytotoxicity (30.516 µM): -2.11 ± 1.2%; LDH release cytotoxicity (96.5 µM): -0.103 ± 1.2%
O=C(Nc1ccc(Cl)cc1)Nc1ccc(Cl)c(Cl)c1 [Triclocarban] | -2.18 ± 0.41 | -1.67 ± 0.93 | -1.81 ± 0.65 | -1.44 ± 1.4 | -1.83 ± 0.3 | -0.606 ± 2.2 | -1.24 ± 0.34 | 0.167 ± 2 | 
CCOC(=O)c1ccc(O)cc1 [Ethylparaben] | -0.474 ± 0.19 | -1.24 ± 0.2 | -1.05 ± 0.26 | -1.23 ± 0.42 | -0.851 ± 0.3 | -1.05 ± 0.62 | -0.271 ± 1.2 | 0.163 ± 0.13 | 
C#CC(C)(C)NC(=O)c1cc(Cl)cc(Cl)c1 [Propyzamide] | -1.48 ± 1.2 | -0.106 ± 0.45 | -1.18 ± 0.17 | -0.534 ± 0.42 | -1.13 ± 0.49 | -0.249 ± 0.6 | -0.378 ± 0.49 | 1.49 ± 0.29 | 
Nc1ccc(C(=O)O)cc1 [4-Aminobenzoic acid] |  | -1.2 ± 2.3 |  | -2.3 ± 1.1 | -2.47 ± 0.28 | -1.41 ± 0.43 | -0.777 ± 0.61 | 1.93 ± 0.47 | LDH release cytotoxicity (0.031623 µM): -2.09 ± 0.27%; LDH release cytotoxicity (0.316228 µM): -0.757 ± 1.4%
CCN(CC)C(=O)c1cc(S(=O)(=O)Cc2ccccc2)c(N2CCC(c3ccccc3)CC2)cc1N(CC)CCN(C)C [HMR1171 trifluoroacetate (1:1)] |  |  |  |  |  |  |  |  | LDH release cytotoxicity (0.01202 µM): 1.63 ± 0.27%; LDH release cytotoxicity (0.038 µM): 0.671 ± 0.26%; LDH release cytotoxicity (0.120167 µM): 0.671 ± 1.3%; LDH release cytotoxicity (0.38 µM): -0.413 ± 1.6%; LDH release cytotoxicity (1.20167 µM): -7.42 ± 1%; LDH release cytotoxicity (3.8 µM): 9.34 ± 2.8%; LDH release cytotoxicity (12.01666 µM): 1.9 ± 0.12%; LDH release cytotoxicity (38 µM): 82.5 ± 8.2%
CC12C=CC(=O)C=C1CCC1C3CC(O)C(O)(C(=O)CO)C3(C)CC(O)C12F (configuration not stated) [Triamcinolone] | -1.85 ± 0.34 | -0.492 ± 0.35 | -1.39 ± 0.53 | -1.34 ± 0.22 | -0.853 ± 0.06 | -0.509 ± 0.53 | -0.546 ± 0.2 | 2.9 ± 0.79 | 
Cc1cc(Cc2ccc(N)c(C)c2)ccc1N [4,4'-Diamino-3,3'-dimethyldiphenylmethane] | -1.54 ± 0.07 | -0.939 ± 0.25 | -0.759 ± 0.17 | -1.39 ± 0.074 | -0.662 ± 0.88 | -0.124 ± 0.55 | -0.39 ± 0.76 | -0.749 ± 1.9 | 
C#CC1(O)CCC2C3CCC4=CC(=O)CCC4C3CCC21CC (configuration not stated) [Levonorgestrel] | -1.38 ± 1.4 | -1.25 ± 1.1 | -1.67 ± 1.2 | -1.92 ± 0.3 | -1.95 ± 0.12 | -1.02 ± 0.035 | -0.294 ± 1.1 | 0.81 ± 0.17 | 
CCOC(=O)CC(SP(=S)(OC)OC)C(=O)OCC (configuration not stated) [Malathion] | 0.138 ± 0.34 | -0.944 ± 0.55 | -0.165 ± 0.55 | -0.829 ± 0.26 | -0.0242 ± 0.075 | -0.216 ± 0.19 | -0.432 ± 0.52 | 0.626 ± 0.78 | 
